Laboratory results reported in US20260356841A1, “HETEROCYCLIC PYRIDINONE COMPOUNDS AS TRIGGERING RECEPTOR EXPRESSED ON MYELOID CELLS 2 AGONISTS AND METHODS OF USE” (Vigil Neuroscience, Inc., priority 2023, published 2026).

Molecular target: T1, human TREM2 (Homo sapiens, UniProt Q9NZC2)
T1 construct: expressed in transfected cells; host or cells: HEK293T (HEK293T-hTREM2 cells)
Experiment: TREM2 agonist potency by cellular phosphorylation of Spleen Tyrosine Kinase (Syk), AlphaLisa, HEK293T-hTREM2 cells
Format: cell-based
Settings: hTREM2 EC50 Data (HEK293 Cells); Syk phosphorylation, AlphaLisa; read-out: hTREM2 EC50
Procedure, shortened: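 HEK293T cells co-expressing human TREM2 and DAP12, plated 20–24 h before use. Compounds applied 45 min at room temperature in assay buffer, then cells lysed and phospho-Syk quantified by AlphaLisa. Percent activation from a standard curve; EC50 from a four-parameter variable-slope fit.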

T1 sequence (Q9NZC2 19-230): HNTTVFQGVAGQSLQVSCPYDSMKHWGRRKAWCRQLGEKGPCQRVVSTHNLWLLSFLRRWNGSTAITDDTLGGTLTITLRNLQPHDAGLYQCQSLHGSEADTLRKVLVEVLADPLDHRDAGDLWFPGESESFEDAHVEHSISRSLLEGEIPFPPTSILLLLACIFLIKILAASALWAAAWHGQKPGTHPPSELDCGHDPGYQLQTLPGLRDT
T1 sequence (O43914 22-113 partner): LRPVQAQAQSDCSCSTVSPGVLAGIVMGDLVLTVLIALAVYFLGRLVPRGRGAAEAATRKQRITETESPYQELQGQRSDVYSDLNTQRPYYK

EC50, > 500 nM:
Cc1nc2nc([C@@H]3CCO[C@H](c4ccc(=O)n(C)c4)C3)nc(-c3cc(F)c(C(F)(F)F)cc3F)c2nc1C [Example 349]

EC50, < 100 nM:
Cc1nc2nc([C@@H]3CCO[C@@H](c4ccc(=O)n(C)c4)C3)nc(-c3ccc(Cl)cc3F)c2nc1C (racemic) [Example 9, 1-methyl-5-[rac-(2R,4R)-4-[4-(4-chloro-2-fluoro-phenyl)-6,7-dimethyl-pteridin-2-yl]tetrahydropyran-2-yl]pyridin-2-one]
Cc1nc2nc([C@H]3CCO[C@@H](c4ccc(=O)n(C5CCC5)c4)C3)nc(C34CC(C(F)(F)F)(C3)C4)c2nc1C [Example 94, 1-cyclobutyl-5-[(2R,4S)-4-[6,7-dimethyl-4-[3-(trifluoromethyl)-1 bicyclo[1.1.1]pentanyl]pteridin-2-yl]tetrahydropyran-2-yl]pyridin-2-one]
CCNn1cc([C@H]2C[C@@H](c3nc(C45CC(C(F)(F)F)(C4)C5)c4nc(C)c(C)nc4n3)CCO2)ccc1=O [Example 181, 5-[(2R,4S)-4-[6,7-dimethyl-4-[3-(trifluoromethyl)-1-bicyclo[1.1.1]pentanyl]pteridin-2-yl]tetrahydropyran-2-yl]-1-(ethylamino)pyridin-2-one]
Cc1nc2nc([C@H]3CCO[C@@H](c4ccc(=O)n(C)c4)C3)nc(C34CC(C(F)(F)F)(C3)C4)c2nc1C1CC1 [Example 158, 1-methyl-5-[(2R,4S)-4-[6-cyclopropyl-7-methyl-4-[3-(trifluoro-methyl)-1-bicyclo[1.1.1]pentanyl]pteridin-2-yl]tetrahydropyran-2-yl]pyridin-2-one]
Cc1nc2nc([C@@H]3CCO[C@H](c4ccc(=O)n(C)c4)C3)nc(-c3ccc(C(F)(F)F)cc3F)c2nc1C(F)F [Example 127, 5-[(2S,4R)-4-[6-(difluoromethyl)-4-[2-fluoro-4-(trifluoromethyl)phenyl]-7-methyl-pteridin-2-yl]tetrahydropyran-2-yl]-1-methyl-pyridin-2-one]
Cc1nc2nc([C@H]3CCO[C@@H](c4ccc(=O)n(CC5(C)CC5)c4)C3)nc(C34CC(C(F)(F)F)(C3)C4)c2nc1C [Example 100, 5-[(2R,4S)-4-[6,7-dimethyl-4-[3-(trifluoromethyl)-1-bicyclo[1.1.1]pentanyl]pteridin-2-yl]tetrahydropyran-2-yl]-1-[(1-methylcyclopropyl)methyl]pyridin-2-one]
Cc1nc2nc([C@H]3CCO[C@@H](c4ccc(=O)n(C)c4)C3)nc([C@H]3CC[C@H](F)CC3)c2nc1C [Example 42, 5-((2R,4S)-4-(4-((1r,4S)-4-fluorocyclohexyl)-6,7-dimethyl-pteridin-2-yl)tetrahydro-2H-pyran-2-yl)-1-methylpyridin-2(1H)-one]
Cc1nc2nc([C@H]3CCO[C@@H](c4ccc(=O)n(C)c4)C3)cc(C34CC(C(F)(F)F)(C3)C4)c2nc1C [Example 167, 1-methyl-5-[(2R,4S)-4-[2,3-dimethyl-8-[3-(trifluoromethyl)-1-bicyclo[1.1.1]pentanyl]pyrido[2,3-b]pyrazin-6-yl]tetrahydropyran-2-yl]pyridin-2-one]
Cc1nc2nc([C@@H]3CCO[C@H](c4ccc(=O)n(C)c4)C3)nc(C34CC(C(F)(F)F)(C3)C4)c2nc1C1CC1 [Example 159, 1-methyl-5-[(2S,4R)-4-[6-cyclopropyl-7-methyl-4-[3-(trifluoro-methyl)-1-bicyclo[1.1.1]pentanyl]pteridin-2-yl]tetrahydropyran-2-yl]pyridin-2-one]

EC50, 100 to 500 nM:
Cc1cnc2c(C34CC(C(F)(F)F)(C3)C4)nc([C@H]3CCO[C@@H](c4ccc(=O)[nH]c4)C3)nc2n1 [Example 187, 5-((2R,4S)-4-(7-methyl-4-(3-(trifluoromethyl)bicyclo[1.1.1]pentan-1-yl)pteridin-2-yl)tetrahydro-2H-pyran-2-yl)pyridin-2(1H)-one]
